According to US10273224B2, “Substituted pyrimidine compounds, compositions and medicinal applications thereof” (JUBILANT BIOSYS LIMITED, priority 2013, dated 2019):
Counter-ions that a name gives are not always drawn.

These compounds were tested against T1, EGFR (L858R & T790M) (Homo sapiens, UniProt P00533, L858R/T790M) (assay: EGFR (L858R & T790M) inhibition assay, HTRF method). Details: biochemical HTRF; EGFR (T790M/L858R) 2.5 nM, ATP 5 μM, 60 min room temperature.
T1 construct: GST; purchased Proqinase
T1 sequence (P00533 25-1210 T790M/L858R): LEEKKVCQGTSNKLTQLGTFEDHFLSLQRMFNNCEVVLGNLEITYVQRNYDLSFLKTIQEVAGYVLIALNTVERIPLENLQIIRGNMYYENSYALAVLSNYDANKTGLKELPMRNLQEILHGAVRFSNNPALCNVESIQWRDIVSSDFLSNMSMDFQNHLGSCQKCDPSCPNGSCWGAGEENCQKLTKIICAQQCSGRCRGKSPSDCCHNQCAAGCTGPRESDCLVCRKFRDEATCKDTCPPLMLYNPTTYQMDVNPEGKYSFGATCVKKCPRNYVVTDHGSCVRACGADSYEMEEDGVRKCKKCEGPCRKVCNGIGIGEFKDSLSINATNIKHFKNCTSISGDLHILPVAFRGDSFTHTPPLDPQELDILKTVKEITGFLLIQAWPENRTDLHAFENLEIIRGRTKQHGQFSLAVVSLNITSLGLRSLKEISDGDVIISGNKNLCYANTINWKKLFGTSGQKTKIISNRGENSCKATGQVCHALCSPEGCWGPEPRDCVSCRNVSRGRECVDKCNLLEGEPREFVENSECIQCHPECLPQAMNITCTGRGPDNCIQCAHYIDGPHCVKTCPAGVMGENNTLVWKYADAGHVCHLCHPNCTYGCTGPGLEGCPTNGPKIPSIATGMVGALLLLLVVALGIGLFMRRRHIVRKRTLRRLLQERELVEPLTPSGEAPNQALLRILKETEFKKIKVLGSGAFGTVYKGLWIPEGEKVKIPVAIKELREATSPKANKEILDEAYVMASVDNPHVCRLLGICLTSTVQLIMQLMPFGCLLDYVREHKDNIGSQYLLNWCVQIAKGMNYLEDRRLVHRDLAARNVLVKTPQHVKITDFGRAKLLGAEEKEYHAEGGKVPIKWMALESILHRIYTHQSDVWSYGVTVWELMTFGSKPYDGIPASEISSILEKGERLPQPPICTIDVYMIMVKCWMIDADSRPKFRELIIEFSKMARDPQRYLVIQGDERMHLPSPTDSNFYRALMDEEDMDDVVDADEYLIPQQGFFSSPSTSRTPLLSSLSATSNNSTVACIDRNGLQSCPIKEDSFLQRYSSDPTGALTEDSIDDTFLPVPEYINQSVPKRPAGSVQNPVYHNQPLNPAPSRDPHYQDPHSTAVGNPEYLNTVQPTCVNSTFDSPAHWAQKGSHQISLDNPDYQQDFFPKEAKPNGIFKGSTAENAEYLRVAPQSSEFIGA
Experimental: Example 25: Biological Activity: EGFR T790M Assay Protocol
The objective of the experiment is to find the IC50 for the compounds using HTRF method.
Reagents for Enzyme Assay:
1. Enzyme Assay Buffer: 60 mM HEPES (pH 7.4), 50 mM NaCl, 20 mM MgCl2, 5 mM MnCl2, filter using 0.2 µm pore size, store at 4° C.
Supplements (add fresh to the enzyme buffer): Make 1M DTT stock, 5% BSA stock and 0.1M Na3OV4 stored at 4° C. Enzyme assay buffer 50 ml, 1 M DTT 100 μl, 5% BSA 500 μl, 0.1M Na3OV4 50 μl.
2. GST-hEGFR (L858R), active: EGFR (T790M/L858R), active (Proqinase), 3.6 μM stock; 2.5 nM in final assay.
3. Gastrin Precusor-Biotinylated: Gastrin precursor (Tyr87) biotinylated peptide (EEAY*GWM), Cell Signaling Tech 1310, Lot-7, Want final 0.5 μM in assay
4. ATP: 10 mM stock in 100 μl Enzyme assay buffer pH 7.4 prepared freshly, want 5 μM in final assay.
5. Test compounds: Dissolve powders in 100% DMSO to a final stock concentration of 10 mM (volume in μL to add for 10 mM=mg powder×10^5/MW). Final comp concentration in the assay plate is starting at 10 μM.
1. HTRF buffer: 50 mM Tris-HCl, pH-7.5, 100 mM NaCl, 0.1% BSA, 0.05% Tween20, 0.5 mM EDTA, filter using 0.2 µm pore size, store at 4° C.
Phycolink® Streptavidin-Allophycocyanin (SA-APC) Prozyme, Cat. #PJ25S, Lot #896 085, 2.06 mg/mL, APC concentration is 11.6 μM, streptavidin concentration is 15.5 μM. Want 12 nM final in assay (based on streptavidin concentration).
2. Europium-W1024-PT-66 Anti Phospho Tyrosine Antibody: Perkin Elmer (AD0068), monoclonal IgG1 that recognizes phospho tyrosine peptide 100 μg/ml stock. Want 0.1 nM final in assay.
• 1. Make the compound dilution by TECAN as per the above scheme. • 2. Add 16 μl of diluted compound to the assay plate by using TECAN • 3. Add 10 μl of enzyme mix to each well except mins. • 4. Add 20 μl of substrate and ATP mix into each well of the assay plate manually. • 5. Incubate the plate at room temperature for 60 min with shaking. • 6. Meanwhile prepare the HTRF mix and add 75 μl to the HTRF plate. • 7. When the incubation is over, transfer 10 μl of the reaction mixture to the HTRF assay plate and incubate for 30 min at room temperature with shaking. • 8. Take the reading in Pherastar (ext 337 nm, em 665 & 620 nm). • 9. Analyze the results using Graphpad prism after calculation the z factor, signal window and % inhibition to get the IC50.
Compounds having IC50<10 nM are designated as “A”; 10-100 nM are designated as “B”; and >100 nM as “C”.

IC50 [nM]	SMILES
10 to 100	C=CC(=O)Nc1cccc(Nc2nc(Nc3cnn(C4CCOC4)c3)ncc2Cl)c1 (stereo not drawn) [Compound I-49, N-(3-((5-chloro-2-((1-(tetrahydrofuran-3-yl)-1H-pyrazol-4-yl)amino)pyrimidin-4-yl)amino)phenyl)acrylamide]
10 to 100	C=CC(=O)Nc1cccc(Oc2nc(Nc3cnn(C4CCN(C)CC4)c3)ncc2Cl)c1 [Compound I-77, N-(3-((5-chloro-2-((1-(1-methylpiperidin-4-yl)-1H-pyrazol-4-yl)amino)pyrimidin-4-yl)oxy)phenyl)acrylamide]
> 100	C=CC(=O)Nc1cccc(Nc2nc(Nc3cnn(C4CCCC(O)C4)c3)ncc2Cl)c1 (stereo not drawn) [Compound I-38, N-(3-((5-chloro-2-((1-(3-hydroxycyclohexyl)-1H-pyrazol-4-yl)amino)pyrimidin-4-yl)amino)phenyl)acrylamide]
> 100	CN(C)C/C=C/C(=O)NC1CCCC(Oc2nc(Nc3cnn(C)c3)ncc2Cl)C1 (single isomer, unassigned) [I-91 (Isomer 2), (E)-N-(3-((5-chloro-2-((1-methyl-1H-pyrazol-4-yl)amino)pyrimidin-4-yl)oxy)cyclohexyl)-4-(dimethylamino)but-2-enamide]
> 100	C=CC(=O)NC1CCC(Nc2nc(Nc3cnn(C)c3)ncc2Cl)C1 (stereo not drawn) [Compound I-93, N-(3-((5-chloro-2-((1-methyl-1H-pyrazol-4-yl)amino)pyrimidin-4-yl)amino)cyclopentyl)acrylamide]
> 100	CN(C)C/C=C/C(=O)NC1CCCC(Oc2nc(Nc3cnn(C)c3)ncc2Cl)C1 (single isomer, unassigned) [I-90 (Isomer 1), (E)-N-(3-((5-chloro-2-((1-methyl-1H-pyrazol-4-yl)amino)pyrimidin-4-yl)oxy)cyclohexyl)-4-(dimethylamino)but-2-enamide]
> 100	C=CC(=O)N1CCCC(Oc2nc(Nc3cnn(C)c3)ncc2Cl)C1 (single isomer, unassigned) [II-12 (Enantiomer 1), 1-(3-((5-chloro-2-((1-methyl-1H-pyrazol-4-yl)amino)pyrimidin-4-yl)oxy)piperidin-1-yl)prop-2-en-1-one]
< 10	C=CC(=O)Nc1cccc(Oc2nc(Nc3cnn(C)c3)ncc2Cl)c1 [Compound I-85, N-(3-((5-chloro-2-((1-methyl-1H-pyrazol-4-yl)amino)pyrimidin-4-yl)oxy)phenyl)acrylamide]
> 100	C=CC(=O)N1CCCC(Nc2nc(Nc3cnn(C)c3)ncc2Cl)C1 (single isomer, unassigned) [II-1 (Enantiomer 1), 1-(3-((5-chloro-2-((1-methyl-1H-pyrazol-4-yl)amino)pyrimidin-4-yl)amino)piperidin-1-yl)prop-2-en-1-one]
> 100	C=CC(=O)N[C@@H]1CCC[C@@H](Nc2nc(Nc3cnn(C)c3)ncc2Cl)C1 (single isomer, unassigned) [I-106 (Enantiomer 1)]
> 100	C=CC(=O)N1CCCC(Oc2nc(Nc3cnn(C)c3)ncc2Cl)C1 (single isomer, unassigned) [II-13 (Enantiomer 2), 1-(3-((5-chloro-2-((1-methyl-1H-pyrazol-4-yl)amino)pyrimidin-4-yl)oxy)piperidin-1-yl)prop-2-en-1-one]
> 100	C=CC(=O)N1CCCC(CNc2nc(Nc3cnn(C)c3)ncc2Cl)C1 (stereo not drawn) [II-9, 1-(3-(((5-chloro-2-((1-methyl-1H-pyrazol-4-yl)amino)pyrimidin-4-yl)amino)methyl)piperidin-1-yl)prop-2-en-1-one]
10 to 100	C=CC(=O)Nc1cccc(Nc2nc(Nc3cnn(C4CCC(O)C4)c3)ncc2Cl)c1 (stereo not drawn) [Compound I-36, N-(3-((5-chloro-2-((1-(3-hydroxycyclopentyl)-1H-pyrazol-4-yl)amino)pyrimidin-4-yl)amino)phenyl)acrylamide]
> 100	CN(C)C/C=C/C(=O)N1CCCC(Nc2nc(Nc3cnn(C)c3)ncc2Cl)C1 (single isomer, unassigned) [II-3 (Enantiomer 1), (E)-1-(3-((5-chloro-2-((1-methyl-1H-pyrazol-4-yl)amino)pyrimidin-4-yl)amino)piperidin-1-yl)-4-(dimethylamino)but-2-en-1-one]

More lines, now with the values behind:

SMILES	IC50 [nM]
C=CC(=O)Nc1cccc(Nc2nc(Nc3cnn(S(C)(=O)=O)c3)ncc2Cl)c1 [Compound I-10, N-(3-((5-chloro-2-((1-(methylsulfonyl)-1H-pyrazol-4-yl)amino)pyrimidin-4-yl)amino)phenyl)acrylamide]	10 to 100
C=CC(=O)Nc1ccc(F)c(Nc2nc(Nc3cc(C)no3)ncc2Cl)c1 [Compound I-118, N-(3-((5-chloro-2-((3-methylisoxazol-5-yl)amino)pyrimidin-4-yl)amino)-4-fluorophenyl)acrylamide]	10 to 100
C=CC(=O)Nc1cccc(Nc2nc(Nc3cc(CN4CCC4)n(C)n3)ncc2Cl)c1 [Compound I-42, N-(3-((2-((5-(azetidin-1-ylmethyl)-1-methyl-1H-pyrazol-3-yl)amino)-5-chloropyrimidin-4-yl)amino)phenyl)acrylamide, acetate salt]	> 100
C=CC(=O)Nc1cccc(Nc2nc(Nc3cnn(C4CCN(C)CC4)c3)ncc2C)c1 [Compound I-13, N-(3-((5-methyl-2-((1-(1-methylpiperidin-4-yl)-1H-pyrazol-4-yl)amino)pyrimidin-4-yl)amino)phenyl)acrylamide]	10 to 100
COCCn1cc(Nc2ncc(Cl)c(Nc3cccc(NC(=O)C=C4CCCCC4)c3)n2)cn1 [Compound I-6, N-(3-((5-chloro-2-((1-(2-methoxyethyl)-1H-pyrazol-4-yl)amino)pyrimidin-4-yl)amino)phenyl)-2-cyclohexylideneacetamide]	> 100
C=CC(=O)Nc1cccc(Nc2nc(Nc3cnn(C4CCN(C)CC4)c3)ncc2F)c1 [Compound I-18, N-(3-((5-fluoro-2-((1-(1-methylpiperidin-4-yl)-1H-pyrazol-4-yl)amino)pyrimidin-4-yl)amino)phenyl)acrylamide]	10 to 100
C=CC(=O)Nc1cccc(Nc2nc(Nc3cc(COC)n(C)n3)ncc2Cl)c1 [Compound I-24, N-(3-((5-chloro-2-((5-(methoxymethyl)-1-methyl-1H-pyrazol-3-yl)amino)pyrimidin-4-yl)amino)phenyl)acrylamide]	10 to 100
Cn1cc(Nc2ncc(Cl)c(Nc3cccc(N4C(=O)C=CC4=O)c3)n2)cn1 [Compound I-63, 1-(3-((5-chloro-2-((1-methyl-1H-pyrazol-4-yl)amino)pyrimidin-4-yl)amino)phenyl)-1H-pyrrole-2,5-dione]	> 100
C=CC(=O)Nc1ccc(F)c(Nc2nc(Nc3onc(C)c3C)ncc2Cl)c1 [Compound I-119, N-(3-((5-chloro-2-((3,4-dimethylisoxazol-5-yl)amino)pyrimidin-4-yl)amino)-4-fluorophenyl)acrylamide]	> 100
C=CC(=O)Nc1cccc(Nc2nc(Nc3cc(CN4CCOCC4)n(C)n3)ncc2Cl)c1 [Compound I-46, N-(3-((5-chloro-2-((1-methyl-5-(morpholinomethyl)-1H-pyrazol-3-yl)amino)pyrimidin-4-yl)amino)phenyl)acrylamide]	> 100
CN(C)C/C=C/C(=O)Nc1cccc(Nc2nc(Nc3cnn(C4CCN(C)CC4)c3)ncc2Cl)c1 [Compound I-53, (E)-N-(3-((5-chloro-2-((1-(1-methylpiperidin-4-yl)-1H-pyrazol-4-yl)amino)pyrimidin-4-yl)amino)phenyl)-4-(dimethylamino)but-2-enamide]	> 100
C=CC(=O)Nc1cccc(Oc2nc(Nc3cnn(CCO)c3)ncc2Cl)c1 [Compound I-47, N-(3-((5-chloro-2-((1-(2-hydroxyethyl)-1H-pyrazol-4-yl)amino)pyrimidin-4-yl)oxy)phenyl)acrylamide]	< 10
C=CC(=O)Nc1cccc(Nc2nc(Nc3cnn(C4CC5CCC(C4)N5C)c3)ncc2Cl)c1 (stereo not drawn) [Compound I-48, N-(3-((5-chloro-2-((1-(8-methyl-8-azabicyclo[3.2.1]octan-3-yl)-1H-pyrazol-4-yl)amino)pyrimidin-4-yl)amino)phenyl)acrylamide]	10 to 100
